The results in this text go back to publication PMC7957578, “N-(1,3,4-Oxadiazol-2-yl)Benzamides as Antibacterial Agents against Neisseria gonorrhoeae” (International Journal of Molecular Sciences, 2021).

Values after ≈ are worked out from the molar mass of the structure shown. Where two headings read alike, the source gives them in different places. Bounds are passed on as bounds.

For orientation: MBC means the smallest concentration meeting the test's criterion for killing. Usually MIC stands for the smallest concentration in the dilution series that meets the test's criterion for growth inhibition.

One test deals with S. aureus ATCC 25923. Nature of the test: MIC/MBC (CLSI broth microdilution) against S. aureus ATCC 25923. The class given is cell-based. Particulars: Staphylococcus aureus, ATCC25923. The method, then:
(§1) The minimum inhibitory concentrations (MICs) of the tested compounds and control drugs, linezolid, vancomycin, and gentamicin, were determined using the broth microdilution method according to the guidelines outlined by the Clinical and Laboratory Standards Institute (CLSI) against clinically relevant bacterial (Staphylococcus aureus, MRSA, Escherichia coli, Enterococcus faecalis and Enterococcus faecium strains. S. aureus, MRSA, E. coli, Enterococcus faecalis and Enterococcus faecium were grown aerobically overnight on tryptone soy agar (TSA) plates at 37° C. Afterwards, a bacterial solution equivalent to 0.5 McFarland standard was prepared and diluted in cation-adjusted Mueller–Hinton broth (CAMHB) (for S. aureus, MRSA, and E. coli) to achieve a bacterial concentration of about 5 × 10^5 CFU/mL. Enterococcus faecalis and Enterococcus faecium 0.5 McFarland standard solution was diluted in tryptone soy broth (TSB) to achieve a bacterial concentration of about 5 × 10^5 CFU/mL. Compounds and control drugs were added in the first row of 96-well plates and serially diluted with the corresponding media containing bacteria. Plates were then incubated as previously described. […] The minimum bactericidal concentration (MBC) was tested by spotting 4 µL from wells with no growth onto TSA plates. Plates were incubated at 37 ° C for at least 18 h before recording the MBC. The MBC was categorized as the lowest concentration that reduced bacterial growth by 99.9% [45, 46, 47].

The test system of a further test is VRE. faecalisATCC 51575. The test is described as follows: MIC/MBC (CLSI broth microdilution) against VRE faecalis ATCC 51575. The test is classed as cell-based. As to conditions: Enterococcus. The method, then: as §1
The test system of test [1] is E. coli JW55031 (TolC Mutant). Nature of the test: MIC/MBC (CLSI broth microdilution) against E. coli TolC mutant. The test is classed as cell-based. Particulars: Escherichia coli. The method, then:
as §1
In general terms: Broth dilution looks for growth in wells or tubes with falling amounts of substance.

The test system of test [2] is L. monocytogenes ATCC 19115. The test is described as follows: MIC/MBC (CLSI broth microdilution) against L. monocytogenes ATCC 19115. The test is classed as cell-based. Particulars: Listeria monocytogenes, ATCC19115.
The next test has as its system MRSA USA300. The test is described as follows: MIC/MBC (CLSI broth microdilution) against MRSA USA300. As to conditions: Staphylococcus aureus. The test is classed as cell-based, methicillin-resistant Staphylococcus aureus. The method, then: as §1
Another test concerns VRE. faecium ATCC 700221. Nature of the test: MIC/MBC (CLSI broth microdilution) against VRE faecium ATCC 700221. The test is classed as cell-based. As to conditions: Enterococcus. The method, then:
as §1

The next test concerns VRE. faecalis ATCC 51299. The test is described as follows: MIC/MBC (CLSI broth microdilution) against VRE faecalis ATCC 51299. As to conditions: Enterococcus. The class given is cell-based. The method, then:
as §1

The test system of a further test is E. faecalis ATCC 29212. The test is described as follows: MIC/MBC (CLSI broth microdilution) against E. faecalis ATCC 29212. The class given is cell-based. As to conditions: Enterococcus faecalis, ATCC29212. The method, then:
as §1

In test [3] the test system is E. coli BW25113 (wild-type strain). Nature of the test: MIC/MBC (CLSI broth microdilution) against E. coli BW25113 wild type. The class given is cell-based, Escherichia coli. As to conditions: Escherichia coli. The method, then:
as §1

The subject of a further test is N. gonorrhoeae 200. Nature of the test: MIC/MBC against N. gonorrhoeae clinical isolate 200. The class given is cell-based. Particulars: Neisseria gonorrhoeae. The method, then: (§2) Briefly, bacteria were grown overnight on chocolate agar II at 37° C in the presence of 5% CO2. Afterwards, a bacterial suspension equivalent to 1.0 McFarland standard was prepared and diluted in brucella broth supplemented with yeast extract, neopeptone, hematin, pyridoxal, and NAD. Test agents were added in the first row of the 96-well plates and serially diluted along the plates. Plates were then incubated at 37° C in the presence of 5% CO2 for 24 h. […] Plates were then incubated at 37 ° C in the presence of 5% CO2 for 24 h. The MBC was categorized as the lowest concentration that reduced bacterial growth by 99.9% [45, 46, 47].

Another test deals with N. gonorrhoeae 197. Nature of the test: MIC/MBC against N. gonorrhoeae clinical isolate 197. The class given is cell-based. Particulars: Neisseria gonorrhoeae. The method, then: as §2
Another test deals with N. gonorrhoeae WHO L. Nature of the test: MIC/MBC against N. gonorrhoeae WHO L reference strain. The class given is cell-based. As to conditions: Neisseria gonorrhoeae. The method, then:
as §2

The test system of the next test is N. gonorrhoeae 166. Nature of the test: MIC/MBC against N. gonorrhoeae clinical isolate 166. The test is classed as cell-based. As to conditions: Neisseria gonorrhoeae. The method, then:
as §2

For the next test, the system named is N. gonorrhoeae 194. Nature of the test: MIC/MBC against N. gonorrhoeae clinical isolate 194. The test is classed as cell-based. Particulars: Neisseria gonorrhoeae. The method, then: as §2
The test system of the next test is N. gonorrhoeae 165. The test is described as follows: MIC/MBC against N. gonorrhoeae clinical isolate 165. Particulars: Neisseria gonorrhoeae. The test is classed as cell-based. The method, then: as §2
In test [4] the test system is N. gonorrhoeae strain 181. Nature of the test: MIC by broth microdilution against N. gonorrhoeae strain 181. The test is classed as cell-based, Neisseria gonorrhoeae. Particulars: Neisseria gonorrhoeae; N. gonorrhoeae strain 181; read-out: MIC. The method, then: as §2

As for `CC(=O)NC[C@H]1CN(c2ccc(N3CCOCC3)c(F)c2)C(=O)O1` [Linezolid, linezolid, reference compound], the MBC is 64 µg/mL (≈ 190 µM) with S. aureus ATCC 25923 (S. aureus ATCC 25923, read-out: MBC); 64 µg/mL (≈ 190 µM) in the test with VRE. faecalisATCC 51575 (VRE faecalis ATCC 51575, read-out: MBC); more than 64 µg/mL in test [1]; 64 µg/mL (≈ 190 µM) in test [2] (L. monocytogenes ATCC 19115, read-out: MBC); 16 µg/mL (≈ 47.4 µM) in the test on MRSA USA300 (MRSA USA300, read-out: MBC); 64 µg/mL (≈ 190 µM) in the test with VRE. faecium ATCC 700221 (VRE faecium ATCC 700221, read-out: MBC). Besides, the MBC was 32 µg/mL (≈ 94.9 µM) with VRE. faecalis ATCC 51299 (VRE faecalis ATCC 51299, read-out: MBC); 64 µg/mL (≈ 190 µM) with E. faecalis ATCC 29212 (E. faecalis ATCC 29212, read-out: MBC); more than 64 µg/mL in test [3] (E. coli BW25113 wild-type strain, read-out: MBC). For the same compound, the minimal inhibitory concentration (MIC) in the test with S. aureus ATCC 25923 (S. aureus ATCC 25923, read-out: MIC) came out at 2 µg/mL (≈ 5.93 µM); in the test with VRE. faecalisATCC 51575 (VRE faecalis ATCC 51575, read-out: MIC), 2 µg/mL (≈ 5.93 µM); in [1] it was 8 µg/mL (≈ 23.7 µM); in test [2] (L. monocytogenes ATCC 19115, read-out: MIC), 2 µg/mL (≈ 5.93 µM); in the test with MRSA USA300 (MRSA USA300, read-out: MIC) it was 1 µg/mL (≈ 2.96 µM); with VRE. faecium ATCC 700221 (VRE faecium ATCC 700221, read-out: MIC) it was 2 µg/mL (≈ 5.93 µM). For the same compound, the MIC is 1 µg/mL (≈ 2.96 µM) with VRE. faecalis ATCC 51299 (VRE faecalis ATCC 51299, read-out: MIC); 2 µg/mL (≈ 5.93 µM) in the test with E. faecalis ATCC 29212 (E. faecalis ATCC 29212, read-out: MIC); more than 64 µg/mL in [3] (E. coli BW25113 wild-type strain, read-out: MIC).

In the case of `CN(C)[C@@H]1C(O)=C(C(N)=O)C(=O)[C@@]2(O)C(O)=C3C(=O)c4c(O)cccc4[C@@](C)(O)[C@H]3C[C@@H]12` [Tetracycline, tetracycline, reference compound], the MBC amounted to 8 µg/mL (≈ 18 µM) with N. gonorrhoeae 200; 4 µg/mL (≈ 9 µM) with N. gonorrhoeae 197; 2 µg/mL (≈ 4.5 µM) in the test on N. gonorrhoeae WHO L; 8 µg/mL (≈ 18 µM) against N. gonorrhoeae 166; 4 µg/mL (≈ 9 µM) in the test with N. gonorrhoeae 194; 8 µg/mL (≈ 18 µM) in the test on N. gonorrhoeae 165. Moreover, the MIC against N. gonorrhoeae 200 worked out at 2 µg/mL (≈ 4.5 µM); in the test on N. gonorrhoeae 197, 2 µg/mL (≈ 4.5 µM); in the test with N. gonorrhoeae WHO L it was 0.5 µg/mL (≈ 1.13 µM); in the test on N. gonorrhoeae 166, 2 µg/mL (≈ 4.5 µM); against N. gonorrhoeae 194, 1 µg/mL (≈ 2.25 µM); against N. gonorrhoeae 165 it was 4 µg/mL (≈ 9 µM). The MIC in test [4] is 2 µg/mL (≈ 4.5 µM).

As for `CN[C@H](CC(C)C)C(=O)N[C@H]1C(=O)N[C@@H](CC(N)=O)C(=O)N[C@H]2C(=O)N[C@H]3C(=O)N[C@H](C(=O)N[C@H](C(=O)O)c4cc(O)cc(O)c4-c4cc3ccc4O)[C@H](O)c3ccc(c(Cl)c3)Oc3cc2cc(c3O[C@@H]2O[C@H](CO)[C@@H](O)[C@H](O)[C@H]2O[C@H]2C[C@](C)(N)[C@H](O)[C@H](C)O2)Oc2ccc(cc2Cl)[C@H]1O` [Vancomycin, vancomycin, reference compound], the minimal bactericidal concentration (MBC) against S. aureus ATCC 25923 is 1 µg/mL (≈ 0.69 µM); against VRE. faecalisATCC 51575 it was more than 64 µg/mL; in [1], more than 64 µg/mL; in [2], 1 µg/mL (≈ 0.69 µM); against MRSA USA300, 2 µg/mL (≈ 1.38 µM); against VRE. faecium ATCC 700221 it was 32 µg/mL (≈ 22.1 µM). For the same compound, the MBC was more than 64 µg/mL against VRE. faecalis ATCC 51299, 1 µg/mL (≈ 0.69 µM) in the test with E. faecalis ATCC 29212 and more than 64 µg/mL in test [3] (BW25113). Further, the MIC is 1 µg/mL (≈ 0.69 µM) against S. aureus ATCC 25923; more than 64 µg/mL against VRE. faecalisATCC 51575; more than 64 µg/mL in [1]; 1 µg/mL (≈ 0.69 µM) in test [2]; 1 µg/mL (≈ 0.69 µM) with MRSA USA300; 32 µg/mL (≈ 22.1 µM) in the test on VRE. faecium ATCC 700221. For the same compound, the MIC against VRE. faecalis ATCC 51299 was more than 64 µg/mL; with E. faecalis ATCC 29212 it was 1 µg/mL (≈ 0.69 µM); in test [3] (BW25113) it was more than 64 µg/mL.
